≈ marks a conversion by molar mass, not a printed value.
Legend:
Experiment in all cases: minimal inhibitory concentration, two-fold agar dilution
Assay type in all cases: cell-based
[1] = test system: Pseudomonas aeruginosa ATCC 25619; details: ATCC25619, Muller-Hinton agar, 37°C, 20 hours, read-out: MIC values against the standard strains
Method in brief: (§1)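 Compounds were serially diluted two-fold into Mueller-Hinton agar, and each plate was spot-inoculated with the test strain at 10⁷ CFU per ml. Plates were incubated at 37°C for 20 hours before MIC values were read.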

[2] = test system: Enterobacter aerogenes ATCC 29751; details: Klebsiella aerogenes, ATCC29751; Muller-Hinton agar; 37°C; 20 hours; read-out: MIC values against the standard strains
Method in brief: as §1

[3] = test system: Staphylococcus aureus ATCC 10537; details: ATCC10537, Muller-Hinton agar, 37°C, 20 hours, read-out: MIC values against the standard strains
Method in brief: as §1

[4] = test system: Staphylococcus epidermidis ATCC 12228; details: ATCC12228, Muller-Hinton agar, 37°C, 20 hours, read-out: MIC values against the standard strains
Method in brief: as §1

[5] = test system: Salmonella typhimurium ATCC 14028; details: Salmonella enterica; Muller-Hinton agar; 37°C; 20 hours; read-out: MIC values against the standard strains
Method in brief: as §1

[6] = test system: Morganella morganii ATCC 8076h; details: ATCC8076H, Muller-Hinton agar, 37°C, 20 hours, read-out: MIC values against the standard strains
Method in brief: as §1

[7] = test system: Pseudomonas aeruginosa ATCC 10145; details: ATCC10145, Muller-Hinton agar, 37°C, 20 hours, read-out: MIC values against the standard strains
Method in brief: as §1

[8] = test system: Bacillus cereus ATCC 11778; details: ATCC11778, Muller-Hinton agar, 37°C, 20 hours, read-out: MIC values against the standard strains
Method in brief: as §1

[9] = test system: Micrococcus luteus ATCC 9341; details: ATCC9341, Muller-Hinton agar, 37°C, 20 hours, read-out: MIC values against the standard strains
Method in brief: as §1

[10] = test system: Streptococcus faecalis ATCC 29212; details: Enterococcus faecalis, ATCC29212; Muller-Hinton agar; 37°C; 20 hours; read-out: MIC values against the standard strains
Method in brief: as §1

[11] = test system: Pseudomonas aeruginosa ATCC 27853; details: ATCC27853, Muller-Hinton agar, 37°C, 20 hours, read-out: MIC values against the standard strains
Method in brief: as §1

[12] = test system: Bacillus megaterium ATCC 9885; details: Priestia megaterium, ATCC9885; Muller-Hinton agar; 37°C; 20 hours; read-out: MIC values against the standard strains
Method in brief: as §1

[13] = test system: Providencia rettgeri ATCC 9250; details: ATCC9250, Muller-Hinton agar, 37°C, 20 hours, read-out: MIC values against the standard strains
Method in brief: as §1

[14] = test system: Proteus mirabilis ATCC 25933; details: ATCC25933, Muller-Hinton agar, 37°C, 20 hours, read-out: MIC values against the standard strains
Method in brief: as §1

[15] = test system: Klebsiella pneumoniae ATCC 10031; details: ATCC10031, Muller-Hinton agar, 37°C, 20 hours, read-out: MIC values against the standard strains
Method in brief: as §1

[16] = test system: Enterobacter cloacae ATCC 27508; details: ATCC27508, Muller-Hinton agar, 37°C, 20 hours, read-out: MIC values against the standard strains
Method in brief: as §1

[17] = test system: Shigella flexneri ATCC 11836; details: ATCC11836, Muller-Hinton agar, 37°C, 20 hours, read-out: MIC values against the standard strains
Method in brief: as §1

[18] = test system: Escherichia coli ATCC 25922; details: ATCC25922, Muller-Hinton agar, 37°C, 20 hours, read-out: MIC values against the standard strains
Method in brief: as §1

[19] = test system: Serratia marcescens ATCC 27117; details: ATCC27117, Muller-Hinton agar, 37°C, 20 hours, read-out: MIC values against the standard strains
Method in brief: as §1

[20] = test system: Citrobacter freundii ATCC 8090; details: ATCC8090, Muller-Hinton agar, 37°C, 20 hours, read-out: MIC values against the standard strains
Method in brief: as §1

[21] = test system: Staphylococcus aureus ATCC 6538p; details: ATCC6538P, Muller-Hinton agar, 37°C, 20 hours, read-out: MIC values against the standard strains
Method in brief: as §1

[22] = test system: Acinetobacter calcoaceticus ATCC 15473; details: ATCC15473, Muller-Hinton agar, 37°C, 20 hours, read-out: MIC values against the standard strains
Method in brief: as §1

[23] = test system: Proteus vulgaris ATCC 6059; details: ATCC6059, Muller-Hinton agar, 37°C, 20 hours, read-out: MIC values against the standard strains
Method in brief: as §1

[24] = test system: Escherichia coli ATCC 10536; details: ATCC10536, Muller-Hinton agar, 37°C, 20 hours, read-out: MIC values against the standard strains
Method in brief: as §1

[25] = test system: Shigella sonnei ATCC 11060; details: ATCC11060, Muller-Hinton agar, 37°C, 20 hours, read-out: MIC values against the standard strains
Method in brief: as §1

Row | SMILES | MIC [1] | MIC [2] | MIC [3] | MIC [4] | MIC [5] | MIC [6] | MIC [7] | MIC [8] | MIC [9] | MIC [10] | MIC [11] | MIC [12] | MIC [13] | MIC [14] | MIC [15] | MIC [16] | MIC [17] | MIC [18] | MIC [19] | MIC [20] | also measured
1 | CCO/N=C(\C(=O)N[C@@H]1C(=O)N2C(C(=O)[O-])=C(CSc3nc(N)cc(NC)[n+]3C)CS[C@H]12)c1csc(N)n1 [Example 36, 7-[(Z)-2-(2-aminothiazol-4-yl)-2-(ethoxyimino)acetamido]-3-(4-amino-6-methylamino-1-methylpyrimidinium-2-yl)thiomethyl-3-cephem-4-carboxylate] | 0.5 µg/mL (≈ 0.863 µM) | 0.13 µg/mL (≈ 0.224 µM) | 0.13 µg/mL (≈ 0.224 µM) | 0.031 µg/mL (≈ 0.0535 µM) | 0.13 µg/mL (≈ 0.224 µM) | 0.016 µg/mL (≈ 0.0276 µM) | 8 µg/mL (≈ 13.8 µM) | 32 µg/mL (≈ 55.2 µM) | ≤ 0.008 µg/mL | 32 µg/mL (≈ 55.2 µM) | 4 µg/mL (≈ 6.9 µM) | 0.063 µg/mL (≈ 0.109 µM) | ≤ 0.008 µg/mL | 0.25 µg/mL (≈ 0.431 µM) | ≤ 0.008 µg/mL | ≤ 0.008 µg/mL | ≤ 0.008 µg/mL | 0.063 µg/mL (≈ 0.109 µM) | 0.13 µg/mL (≈ 0.224 µM) | 0.016 µg/mL (≈ 0.0276 µM) | MIC [21]: 0.25 µg/mL (≈ 0.431 µM); MIC [22]: 4 µg/mL (≈ 6.9 µM); MIC [23]: 0.25 µg/mL (≈ 0.431 µM); MIC [24]: 0.031 µg/mL (≈ 0.0535 µM); MIC [25]: 0.063 µg/mL (≈ 0.109 µM)
2 | CC(C)(O/N=C(\C(=O)N[C@@H]1C(=O)N2C(C(=O)[O-])=C(C[n+]3ccccc3)CS[C@H]12)c1csc(N)n1)C(=O)O [Ceftazidime, reference compound] | 1 µg/mL (≈ 1.83 µM) | 8 µg/mL (≈ 14.6 µM) | 4 µg/mL (≈ 7.32 µM) | 4 µg/mL (≈ 7.32 µM) | 0.25 µg/mL (≈ 0.457 µM) | ≤ 0.008 µg/mL | 2 µg/mL (≈ 3.66 µM) | 128 µg/mL (≈ 234 µM) | 0.5 µg/mL (≈ 0.915 µM) | > 128 µg/mL | 1 µg/mL (≈ 1.83 µM) | 0.25 µg/mL (≈ 0.457 µM) | ≤ 0.008 µg/mL | 0.063 µg/mL (≈ 0.115 µM) | 0.13 µg/mL (≈ 0.238 µM) | 0.031 µg/mL (≈ 0.0567 µM) | 0.031 µg/mL (≈ 0.0567 µM) | 0.13 µg/mL (≈ 0.238 µM) | 0.13 µg/mL (≈ 0.238 µM) | 0.13 µg/mL (≈ 0.238 µM) | MIC [21]: 8 µg/mL (≈ 14.6 µM); MIC [22]: 2 µg/mL (≈ 3.66 µM); MIC [23]: 0.063 µg/mL (≈ 0.115 µM); MIC [24]: 0.13 µg/mL (≈ 0.238 µM); MIC [25]: 0.13 µg/mL (≈ 0.238 µM)
3 | CC(C)(O/N=C(\C(=O)N[C@@H]1C(=O)N2C(C(=O)[O-])=C(CSc3nc(N)cc[n+]3N)CS[C@H]12)c1csc(N)n1)C(=O)O [Example 43] | 1 µg/mL (≈ 1.64 µM) | 0.5 µg/mL (≈ 0.82 µM) | 2 µg/mL (≈ 3.28 µM) | 2 µg/mL (≈ 3.28 µM) | 0.13 µg/mL (≈ 0.213 µM) | ≤ 0.008 µg/mL | 2 µg/mL (≈ 3.28 µM) | 128 µg/mL (≈ 210 µM) | 0.5 µg/mL (≈ 0.82 µM) | > 128 µg/mL | 1 µg/mL (≈ 1.64 µM) | 0.5 µg/mL (≈ 0.82 µM) | ≤ 0.008 µg/mL | 0.031 µg/mL (≈ 0.0508 µM) | 0.063 µg/mL (≈ 0.103 µM) | ≤ 0.008 µg/mL | 0.031 µg/mL (≈ 0.0508 µM) | 0.063 µg/mL (≈ 0.103 µM) | 0.13 µg/mL (≈ 0.213 µM) | 0.063 µg/mL (≈ 0.103 µM) | MIC [21]: 8 µg/mL (≈ 13.1 µM); MIC [22]: 2 µg/mL (≈ 3.28 µM); MIC [23]: 0.031 µg/mL (≈ 0.0508 µM); MIC [24]: 0.063 µg/mL (≈ 0.103 µM); MIC [25]: 0.063 µg/mL (≈ 0.103 µM)
4 | C[n+]1cc(-c2ccccc2)c(N)nc1SCC1=C(C(=O)[O-])N2C(=O)[C@@H](NC(=O)/C(=N\OC(C)(C)C(=O)O)c3csc(N)n3)[C@H]2SC1 [Example 21, 7-[(Z)-2-(2-aminothiazol-4-yl)-2-(carboxyprop-2-oxyimino)acetamido]-3-(4-amino-5-phenyl-1-methylpyrimidinium-2-yl)thiomethyl-3-cephem-4-carboxylate] | 2 µg/mL (≈ 2.92 µM) | 2 µg/mL (≈ 2.92 µM) | 1 µg/mL (≈ 1.46 µM) | 2 µg/mL (≈ 2.92 µM) | 0.5 µg/mL (≈ 0.73 µM) | ≤ 0.008 µg/mL | 16 µg/mL (≈ 23.4 µM) | 128 µg/mL (≈ 187 µM) | 0.5 µg/mL (≈ 0.73 µM) | > 128 µg/mL | 8 µg/mL (≈ 11.7 µM) | 0.13 µg/mL (≈ 0.19 µM) | ≤ 0.008 µg/mL | 0.25 µg/mL (≈ 0.365 µM) | 0.031 µg/mL (≈ 0.0453 µM) | 0.016 µg/mL (≈ 0.0234 µM) | 0.063 µg/mL (≈ 0.092 µM) | 0.13 µg/mL (≈ 0.19 µM) | 0.5 µg/mL (≈ 0.73 µM) | 0.13 µg/mL (≈ 0.19 µM) | MIC [21]: 4 µg/mL (≈ 5.84 µM); MIC [22]: 32 µg/mL (≈ 46.7 µM); MIC [23]: 0.25 µg/mL (≈ 0.365 µM); MIC [24]: 0.13 µg/mL (≈ 0.19 µM); MIC [25]: 0.13 µg/mL (≈ 0.19 µM)
5 | CCO/N=C(\C(=O)N[C@@H]1C(=O)N2C(C(=O)[O-])=C(CSc3nc(N)cc[n+]3N)CS[C@H]12)c1csc(N)n1 [Example 42, 7-[(Z)-2-(2-aminothiazol-4-yl)-2-(ethoxyimino)acetamido]-3-(1,4-diaminopyrimidinium-2-yl)thiomethyl-3-cephem-4-carboxylate] | 0.5 µg/mL (≈ 0.906 µM) | 0.13 µg/mL (≈ 0.236 µM) | 0.13 µg/mL (≈ 0.236 µM) | 0.031 µg/mL (≈ 0.0562 µM) | 0.5 µg/mL (≈ 0.906 µM) | 0.25 µg/mL (≈ 0.453 µM) | 8 µg/mL (≈ 14.5 µM) | 32 µg/mL (≈ 58 µM) | ≤ 0.008 µg/mL | 8 µg/mL (≈ 14.5 µM) | 4 µg/mL (≈ 7.25 µM) | 0.063 µg/mL (≈ 0.114 µM) | 0.063 µg/mL (≈ 0.114 µM) | 1 µg/mL (≈ 1.81 µM) | ≤ 0.008 µg/mL | ≤ 0.008 µg/mL | 0.25 µg/mL (≈ 0.453 µM) | 0.031 µg/mL (≈ 0.0562 µM) | 0.5 µg/mL (≈ 0.906 µM) | 0.063 µg/mL (≈ 0.114 µM) | MIC [21]: 0.13 µg/mL (≈ 0.236 µM); MIC [22]: 4 µg/mL (≈ 7.25 µM); MIC [23]: 1 µg/mL (≈ 1.81 µM); MIC [24]: 0.031 µg/mL (≈ 0.0562 µM); MIC [25]: 0.25 µg/mL (≈ 0.453 µM)

From patent publication EP0584797A2, “Novel cephalosporin compounds and processes for the preparation thereof” (LUCKY LTD., priority 1992, dated 1994)
